Experimental data: patent US12522583B2, “Benzimidazole derivatives and aza-benzimidazole derivatives as Janus kinase 2 inhibitors and uses thereof” (Dana-Farber Cancer Institute, Inc., priority 2018, dated 2026)

Tests used:
Assay in all cases: KINOMEscan
Assay type in all cases: binding
Details in all cases: read-out: percent control
ACVR2B = ACVR2B (Homo sapiens (Human), UniProt Q13705)
Description: (§1) Example 2. In Vitro Kinase Selectivity Profiling of the Compounds of the Present Disclosure

p38-beta = p38-beta (Homo sapiens (Human), UniProt Q15759)
Description: as §1

VRK2 = VRK2 (Homo sapiens (Human), UniProt Q86Y07)
Description: as §1

FLT4 = FLT4 (Homo sapiens (Human), UniProt P35916)
Description: as §1

CDK4 = CDK4 (Homo sapiens (Human), UniProt P11802)
Description: as §1

[1] = biological target: RSK1(Kin.Dom.1-N-terminal) (Homo sapiens (Human), UniProt Q15418)
Description: as §1

CSNK1A1L = CSNK1A1L (Homo sapiens (Human), UniProt Q8N752)
Description: as §1

IGF1R = IGF1R (Homo sapiens (Human), UniProt P08069)
Description: as §1

PFTK1 = PFTK1 (Homo sapiens (Human), UniProt O94921)
Description: as §1

NEK10 = NEK10 (Homo sapiens (Human), UniProt Q6ZWH5)
Description: as §1

TLK2 = TLK2 (Homo sapiens (Human), UniProt Q86UE8)
Description: as §1

IRAK1 = IRAK1 (Homo sapiens (Human), UniProt P51617)
Description: as §1

AMPK-alpha1 = AMPK-alpha1 (Homo sapiens (Human), UniProt Q13131)
Description: as §1

BRAF(V600E) = BRAF(V600E) (Homo sapiens (Human), UniProt P15056, V600E)
Description: as §1

PIK3CA(E545A) = PIK3CA(E545A) (Homo sapiens (Human), UniProt P42336, E545A)
Description: as §1

EPHA3 = EPHA3 (Homo sapiens (Human), UniProt P29320)
Description: as §1

[2] = biological target: ABL1(T315I)-nonphosphorylated (Homo sapiens (Human), UniProt P00519, T315I)
Description: as §1

HIPK3 = HIPK3 (Homo sapiens (Human), UniProt Q9H422)
Description: as §1

STK39 = STK39 (Homo sapiens (Human), UniProt Q9UEW8)
Description: as §1

HIPK2 = HIPK2 (Homo sapiens (Human), UniProt Q9H2X6)
Description: as §1

MARK3 = MARK3 (Homo sapiens (Human), UniProt P27448)
Description: as §1

EPHA7 = EPHA7 (Homo sapiens (Human), UniProt Q15375)
Description: as §1

IKK-epsilon = IKK-epsilon (Homo sapiens (Human), UniProt Q14164)
Description: as §1

SNARK = SNARK (Homo sapiens (Human), UniProt Q9H093)
Description: as §1

[3] = biological target: ABL1(F317I)-phosphorylated (Homo sapiens (Human), UniProt P00519, F317I)
Description: as §1

ABL1-phosphorylated = ABL1-phosphorylated (Homo sapiens (Human), UniProt P00519)
Description: as §1

BMPR1B = BMPR1B (Homo sapiens (Human), UniProt O00238)
Description: as §1

NEK10, sequence (Q6ZWH5 whole entry): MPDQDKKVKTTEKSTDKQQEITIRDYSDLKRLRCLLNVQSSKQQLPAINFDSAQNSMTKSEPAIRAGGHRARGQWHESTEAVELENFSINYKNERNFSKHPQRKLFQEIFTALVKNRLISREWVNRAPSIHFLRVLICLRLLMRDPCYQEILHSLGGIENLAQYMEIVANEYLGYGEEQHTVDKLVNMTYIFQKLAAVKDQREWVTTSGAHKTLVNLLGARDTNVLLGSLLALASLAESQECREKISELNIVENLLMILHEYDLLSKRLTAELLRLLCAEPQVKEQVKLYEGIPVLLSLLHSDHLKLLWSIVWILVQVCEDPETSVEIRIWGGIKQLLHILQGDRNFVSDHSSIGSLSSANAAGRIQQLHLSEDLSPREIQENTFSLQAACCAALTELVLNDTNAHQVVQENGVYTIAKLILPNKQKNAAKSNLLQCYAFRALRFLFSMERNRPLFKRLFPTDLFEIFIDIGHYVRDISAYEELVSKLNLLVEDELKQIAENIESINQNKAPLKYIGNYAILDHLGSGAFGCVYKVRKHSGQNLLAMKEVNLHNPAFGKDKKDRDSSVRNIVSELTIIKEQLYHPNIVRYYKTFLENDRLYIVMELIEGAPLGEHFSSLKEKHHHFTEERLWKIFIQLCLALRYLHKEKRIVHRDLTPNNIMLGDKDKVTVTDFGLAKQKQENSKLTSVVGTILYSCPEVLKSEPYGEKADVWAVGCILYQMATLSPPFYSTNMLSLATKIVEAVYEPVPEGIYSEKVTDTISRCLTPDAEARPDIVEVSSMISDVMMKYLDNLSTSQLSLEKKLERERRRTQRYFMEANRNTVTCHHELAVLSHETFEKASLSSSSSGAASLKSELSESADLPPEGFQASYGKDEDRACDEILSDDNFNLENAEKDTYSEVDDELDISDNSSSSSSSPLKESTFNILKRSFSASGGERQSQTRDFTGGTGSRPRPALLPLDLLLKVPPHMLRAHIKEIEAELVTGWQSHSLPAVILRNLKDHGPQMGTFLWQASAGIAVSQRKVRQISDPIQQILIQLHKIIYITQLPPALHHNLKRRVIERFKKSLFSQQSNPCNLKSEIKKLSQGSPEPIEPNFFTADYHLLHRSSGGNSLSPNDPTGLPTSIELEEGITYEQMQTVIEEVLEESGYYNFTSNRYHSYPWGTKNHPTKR
BRAF(V600E), sequence (P15056 whole entry V600E): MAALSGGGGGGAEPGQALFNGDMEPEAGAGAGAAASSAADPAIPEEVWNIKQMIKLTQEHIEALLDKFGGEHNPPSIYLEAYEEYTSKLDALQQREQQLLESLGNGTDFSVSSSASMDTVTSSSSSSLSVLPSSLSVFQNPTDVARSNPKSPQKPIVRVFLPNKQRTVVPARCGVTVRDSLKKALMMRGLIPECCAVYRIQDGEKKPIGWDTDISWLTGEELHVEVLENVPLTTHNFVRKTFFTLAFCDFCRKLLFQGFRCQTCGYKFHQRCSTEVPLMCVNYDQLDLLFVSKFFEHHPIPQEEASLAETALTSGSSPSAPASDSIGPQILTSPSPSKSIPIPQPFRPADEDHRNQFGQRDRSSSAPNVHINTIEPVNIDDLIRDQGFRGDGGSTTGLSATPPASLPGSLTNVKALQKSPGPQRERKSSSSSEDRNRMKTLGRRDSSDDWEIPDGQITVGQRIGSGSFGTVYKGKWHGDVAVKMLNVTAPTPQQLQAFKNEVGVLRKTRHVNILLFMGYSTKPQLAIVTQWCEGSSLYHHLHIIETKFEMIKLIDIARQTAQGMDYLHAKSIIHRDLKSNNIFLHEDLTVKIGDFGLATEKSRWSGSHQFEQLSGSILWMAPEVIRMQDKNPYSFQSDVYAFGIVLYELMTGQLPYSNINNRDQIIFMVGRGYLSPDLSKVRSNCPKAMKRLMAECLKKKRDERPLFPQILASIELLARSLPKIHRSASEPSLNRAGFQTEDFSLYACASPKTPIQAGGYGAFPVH
AMPK-alpha1, sequence (Q13131 whole entry): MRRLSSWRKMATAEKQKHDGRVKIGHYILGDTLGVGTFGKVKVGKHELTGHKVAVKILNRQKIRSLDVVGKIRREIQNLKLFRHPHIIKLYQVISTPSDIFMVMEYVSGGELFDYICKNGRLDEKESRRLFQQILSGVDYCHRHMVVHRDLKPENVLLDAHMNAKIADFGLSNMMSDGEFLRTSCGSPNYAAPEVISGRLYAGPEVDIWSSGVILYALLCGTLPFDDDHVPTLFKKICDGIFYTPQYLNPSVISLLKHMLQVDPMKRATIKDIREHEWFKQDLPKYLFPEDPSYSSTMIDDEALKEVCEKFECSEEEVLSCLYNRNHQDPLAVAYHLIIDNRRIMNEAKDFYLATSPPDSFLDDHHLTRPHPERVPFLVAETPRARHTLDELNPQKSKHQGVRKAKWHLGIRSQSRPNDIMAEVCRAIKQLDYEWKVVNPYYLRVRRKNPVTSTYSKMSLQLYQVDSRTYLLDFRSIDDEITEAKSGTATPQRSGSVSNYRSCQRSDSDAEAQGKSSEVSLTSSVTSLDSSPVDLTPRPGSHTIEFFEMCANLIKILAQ
SNARK, sequence (Q9H093 whole entry): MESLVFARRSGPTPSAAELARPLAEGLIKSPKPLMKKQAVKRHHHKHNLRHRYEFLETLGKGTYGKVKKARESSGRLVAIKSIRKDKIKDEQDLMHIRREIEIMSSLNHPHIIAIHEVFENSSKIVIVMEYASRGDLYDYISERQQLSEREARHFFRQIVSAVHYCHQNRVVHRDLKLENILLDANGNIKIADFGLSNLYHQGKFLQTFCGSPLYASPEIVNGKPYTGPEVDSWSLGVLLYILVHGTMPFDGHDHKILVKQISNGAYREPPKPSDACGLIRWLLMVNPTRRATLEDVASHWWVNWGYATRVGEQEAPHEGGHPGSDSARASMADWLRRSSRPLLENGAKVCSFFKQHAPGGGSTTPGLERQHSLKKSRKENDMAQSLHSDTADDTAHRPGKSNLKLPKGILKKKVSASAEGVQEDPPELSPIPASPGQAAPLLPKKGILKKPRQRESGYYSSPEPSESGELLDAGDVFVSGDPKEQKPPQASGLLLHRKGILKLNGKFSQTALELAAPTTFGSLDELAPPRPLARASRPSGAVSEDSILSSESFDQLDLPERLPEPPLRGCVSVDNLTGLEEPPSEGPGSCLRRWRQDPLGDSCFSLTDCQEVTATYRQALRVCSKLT
MARK3, sequence (P27448 whole entry): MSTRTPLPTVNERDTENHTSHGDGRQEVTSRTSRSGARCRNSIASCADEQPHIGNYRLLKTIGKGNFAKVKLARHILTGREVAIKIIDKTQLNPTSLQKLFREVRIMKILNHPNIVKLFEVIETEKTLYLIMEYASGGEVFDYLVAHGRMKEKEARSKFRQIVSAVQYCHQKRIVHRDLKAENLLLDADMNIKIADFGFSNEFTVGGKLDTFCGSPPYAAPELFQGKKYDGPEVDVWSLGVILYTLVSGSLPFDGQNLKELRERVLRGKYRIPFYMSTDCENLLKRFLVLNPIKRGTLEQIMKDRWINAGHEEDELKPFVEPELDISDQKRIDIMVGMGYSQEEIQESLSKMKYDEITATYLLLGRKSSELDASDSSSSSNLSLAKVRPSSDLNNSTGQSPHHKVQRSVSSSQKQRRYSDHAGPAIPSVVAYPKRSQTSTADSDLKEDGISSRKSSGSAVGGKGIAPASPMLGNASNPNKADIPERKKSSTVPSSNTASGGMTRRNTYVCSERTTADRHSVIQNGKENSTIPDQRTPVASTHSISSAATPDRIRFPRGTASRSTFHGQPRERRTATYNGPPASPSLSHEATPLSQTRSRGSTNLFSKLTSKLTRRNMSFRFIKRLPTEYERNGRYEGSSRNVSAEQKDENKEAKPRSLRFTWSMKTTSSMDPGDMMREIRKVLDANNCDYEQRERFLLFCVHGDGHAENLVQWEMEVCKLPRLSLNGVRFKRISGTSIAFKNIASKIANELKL
HIPK2, sequence (Q9H2X6 whole entry): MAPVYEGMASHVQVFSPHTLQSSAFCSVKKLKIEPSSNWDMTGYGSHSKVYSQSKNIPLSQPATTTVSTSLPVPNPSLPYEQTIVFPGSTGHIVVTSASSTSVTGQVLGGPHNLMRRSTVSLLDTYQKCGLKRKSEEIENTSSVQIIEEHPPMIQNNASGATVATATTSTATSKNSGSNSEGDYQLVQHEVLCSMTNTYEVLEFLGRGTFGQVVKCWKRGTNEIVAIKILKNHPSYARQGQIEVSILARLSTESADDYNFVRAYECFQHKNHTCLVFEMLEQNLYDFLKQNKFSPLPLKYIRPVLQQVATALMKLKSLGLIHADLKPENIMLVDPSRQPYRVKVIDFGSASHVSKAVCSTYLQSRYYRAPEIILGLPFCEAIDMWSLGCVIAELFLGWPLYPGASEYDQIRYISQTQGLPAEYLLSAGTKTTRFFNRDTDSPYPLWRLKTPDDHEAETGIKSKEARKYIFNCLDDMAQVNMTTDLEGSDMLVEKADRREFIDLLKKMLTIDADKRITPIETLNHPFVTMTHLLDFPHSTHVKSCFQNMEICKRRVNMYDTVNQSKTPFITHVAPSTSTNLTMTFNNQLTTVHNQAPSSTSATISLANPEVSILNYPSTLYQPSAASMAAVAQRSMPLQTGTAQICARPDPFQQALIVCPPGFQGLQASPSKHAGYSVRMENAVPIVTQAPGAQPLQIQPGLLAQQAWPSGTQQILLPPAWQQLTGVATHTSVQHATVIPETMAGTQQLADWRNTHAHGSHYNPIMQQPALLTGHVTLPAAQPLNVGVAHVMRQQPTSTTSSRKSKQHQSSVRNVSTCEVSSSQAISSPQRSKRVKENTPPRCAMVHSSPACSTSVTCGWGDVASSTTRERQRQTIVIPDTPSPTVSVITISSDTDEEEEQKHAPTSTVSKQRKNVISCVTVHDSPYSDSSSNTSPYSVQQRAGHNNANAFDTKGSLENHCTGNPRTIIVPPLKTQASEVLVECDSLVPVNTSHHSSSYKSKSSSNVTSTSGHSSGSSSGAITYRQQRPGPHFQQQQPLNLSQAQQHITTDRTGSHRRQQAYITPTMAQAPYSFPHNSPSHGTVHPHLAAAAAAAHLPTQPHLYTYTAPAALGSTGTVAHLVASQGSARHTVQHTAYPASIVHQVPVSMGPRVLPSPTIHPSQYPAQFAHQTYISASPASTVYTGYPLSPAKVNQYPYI

`CCN1CCN(Cc2ccc(Nc3nc4ccc(Oc5ccnc(NC(C)=O)c5)cc4n3C)cc2C(F)(F)F)CC1` [Compound I-2] showed a remaining binding at 1 µM (ACVR2B) of 97%, a remaining binding at 1 µM (p38-beta) of 100% and a remaining binding at 1 µM (VRK2) of 54%. It also gave a remaining binding at 1 µM (FLT4) of 0.5%, a remaining binding at 1 µM (CDK4) of 94% and a remaining binding at 1 µM [1] of 100%. For the same molecule, the remaining binding at 1 µM (CSNK1A1L) was 86%, the remaining binding at 1 µM (IGF1R) was 59% and the remaining binding at 1 µM (PFTK1) was 94%. It also gave a remaining binding at 1 µM (NEK10) of 100%, a remaining binding at 1 µM (TLK2) of 98% and a remaining binding at 1 µM (IRAK1) of 79%. For the same molecule, the remaining binding at 1 µM (AMPK-alpha1) was 93%, the remaining binding at 1 µM (BRAF(V600E)) was 0.8% and the remaining binding at 1 µM (PIK3CA(E545A)) was 100%. It also gave a remaining binding at 1 µM (EPHA3) of 52%, a remaining binding at 1 µM [2] of 46% and a remaining binding at 1 µM (HIPK3) of 85%. For the same molecule, the remaining binding at 1 µM (STK39) was 62%, the remaining binding at 1 µM (HIPK2) was 100% and the remaining binding at 1 µM (MARK3) was 87%. For the same molecule, the remaining binding at 1 µM (EPHA7) was 93%, the remaining binding at 1 µM (IKK-epsilon) was 91% and the remaining binding at 1 µM (SNARK) was 100%. For the same molecule, the remaining binding at 1 µM [3] was 82%, the remaining binding at 1 µM (ABL1-phosphorylated) was 23% and the remaining binding at 1 µM (BMPR1B) was 84%.

For `CCN1CCN(Cc2ccc(Nc3nc4ccc(Oc5ccnc(NC(C)=O)c5)c(C)c4n3C)cc2C(F)(F)F)CC1` [Compound I-6, N-(4-(2-(4-((4-ethylpiperazin-1-yl)methyl)-3-(trifluoromethyl)phenylamino)-1,7-dimethyl-1H-benzo[d]imidazol-6-yloxy)pyridin-2-yl)acetamide], the remaining binding at 1 µM (ACVR2B) was 100%, the remaining binding at 1 µM (p38-beta) was 94% and the remaining binding at 1 µM (VRK2) was 100%. It also gave a remaining binding at 1 µM (FLT4) of 0.7%, a remaining binding at 1 µM (CDK4) of 92% and a remaining binding at 1 µM [1] of 99%. It also gave a remaining binding at 1 µM (CSNK1A1L) of 100%, a remaining binding at 1 µM (IGF1R) of 34% and a remaining binding at 1 µM (PFTK1) of 61%. It also gave a remaining binding at 1 µM (NEK10) of 79%, a remaining binding at 1 µM (TLK2) of 97% and a remaining binding at 1 µM (IRAK1) of 38%. The remaining binding at 1 µM (AMPK-alpha1) was 95%, the remaining binding at 1 µM (BRAF(V600E)) was 1.8% and the remaining binding at 1 µM (PIK3CA(E545A)) was 100%. For the same molecule, the remaining binding at 1 µM (EPHA3) was 68%, the remaining binding at 1 µM [2] was 32% and the remaining binding at 1 µM (HIPK3) was 76%. For the same molecule, the remaining binding at 1 µM (STK39) was 93%, the remaining binding at 1 µM (HIPK2) was 86% and the remaining binding at 1 µM (MARK3) was 86%. For the same molecule, the remaining binding at 1 µM (EPHA7) was 99%, the remaining binding at 1 µM (IKK-epsilon) was 92% and the remaining binding at 1 µM (SNARK) was 100%. It also gave a remaining binding at 1 µM [3] of 34%, a remaining binding at 1 µM (ABL1-phosphorylated) of 11% and a remaining binding at 1 µM (BMPR1B) of 89%.
